Where a name gives a salt, the structure may show the parent alone.
Key:
[1] = distribution in the body as function of time after intravenous administration, measured by scinticamera; type: in vivo, human; conditions: for Time of Appearance in Gallbladder / Time of Appearance in Intestine / Blood T 1/2 / Liver T 1/2 / Maximum Liver Accumulation: approximately 0.25 millicurie per injection; for Blood T 1/2: elimination from blood into liver cells; for Liver T 1/2: elimination from liver cells into bile ducts and gallbladder; for Maximum Liver Accumulation: time of maximum accumulation
Method: These compounds were tested intravenously on humans. The total quantity of radioactivity per injection of the respectively injected aqueous test solution was approximately 0.25 millicurie in each instance.
The distribution in the body as function of time after administration was measured by scinticamera in the usual manner.

[2] = background statement in words; cited from earlier work

| Time of Appearance in Gallbladder ([1]; humans, intravenous) [min] | Time of Appearance in Intestine ([1]; humans, intravenous) [min] | Blood T 1/2 ([1]; humans, intravenous) [min] | Liver T 1/2 ([1]; humans, intravenous) [min] | Maximum Liver Accumulation ([1]; humans, intravenous) [min] | enterohepatic cycle (reabsorption from the intestine into the bloodstream) ([1]; humans, intravenous, in words) | liver passage (from T 1/2 values) ([1]; humans, intravenous, in words) | Compound | elimination from the liver [2] | maximum accumulation in the liver [2] | times of appearance in the intestine and gallbladder, compared with B and C ([1]; humans, intravenous, in words) | concomitant gallbladder representation ([1]; patients having a healthy liver) |
| --- | --- | --- | --- | --- | --- | --- | --- | --- | --- | --- | --- |
| 45 | 45 | 8.14 | 10.24 | 30 |  |  | O=C1OC2(c3cc(I)c(O)c(I)c3Oc3c2cc(I)c(O)c3I)c2c(Cl)c(Cl)c(Cl)c(Cl)c21 [B, tetrachlorotetraiodofluorescein-131-iodine sodium salt] | after a longer period of time | after a longer period of time |  |  |
| 25.5 | 14.6 | 3.22 | 3.19 | 16.5 | absence of an enterohepatic cycle | markedly faster liver passage | O=C(COCC(=O)Nc1c(I)cc(I)c(C(=O)O)c1I)Nc1c(I)cc(I)c(C(=O)O)c1I [A, diglycolic acid bis(3-carboxy-2,4,6-triiodoanilide)-131-iodine N-methylglucamine salt] |  |  | markedly shorter than in the comparison substances B and C | a concomitant gallbladder representation is obtained |
